Laboratory results taken from patent publication US20240368150A1 (Hoffmann-La Roche Inc., priority 2021, published 2024).
Like-named read-outs stand apart in the source and are kept apart here.

Tests used:
primary human T-cells [1] = test system: primary human T-cells
primary human T-cells [2] = experiment: Proliferation assay after 5 days (CellTiter-Glo, CD3 stimulation; PBS counter screen); format: cell-based; conditions: Homo sapiens, T-cell, 120 h, CD3 stimulation; for Emax: 5 days, normalized to reference compound A1 as stimulator control = 100%, DMSO neutral control, read-out: Emax proliferation (% activation); for EC50: primary human T-cells, CellTiter-Glo after 5 days, EC50 of fitted sigmoidal curve, read-out: Tcell Proliferation CD3 EC50
In short: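 Cpds added to medium-only plates; 5 d culture. Readout CellTiter-Glo 2.0 (equal vol), RT 45 min equilibration, 15 min rocking RT, luminescence. ATP signal taken as cell number.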

Structure (SMILES) | EC50 (primary human T-cells [1]) [µM] | Emax (primary human T-cells [2]) [%] | EC50 (primary human T-cells [2]) [µM]
COC(=O)N1CCC(C#N)(c2nnc(-c3ccc4c(c3)N(Cc3ccc(Cl)cc3)C(=O)[C@@H](N)CS4(=O)=O)o2)CC1 [Example 389, methyl 4-[5-[(3R)-3-amino-5-[(4-chlorophenyl)methyl]-1,1,4-trioxo-2,3-dihydro-1λ^6,5-benzothiazepin-7-yl]-1,3,4-oxadiazol-2-yl]-4-cyano-piperidine-1-carboxylate] | > 2.73 | 80 | 1.99
N[C@H]1CS(=O)(=O)c2ccc(-c3nnc(N4CC(CO)(CCl)C4)o3)cc2N(Cc2ccc(Cl)cc2)C1=O [Example 400, (3R)-3-amino-7-[5-[3-(chloromethyl)-3-(hydroxymethyl)azetidin-1-yl]-1,3,4-oxadiazol-2-yl]-5-[(4-chlorophenyl)methyl]-1,1-dioxo-2,3-dihydro-1λ^6,5-benzothiazepin-4-one] | 4.05 | 72 | 5.22
N[C@H]1CS(=O)(=O)c2ccc(-c3nnc(N4CC5(CCCO5)C4)o3)cc2N(Cc2ccc(Cl)cc2)C1=O [Example 404, (3R)-3-amino-5-[(4-chlorophenyl)methyl]-7-[5-(5-oxa-2-azaspiro[3.4]octan-2-yl)-1,3,4-oxadiazol-2-yl]-1,1-dioxo-2,3-dihydro-1λ^6,5-benzothiazepin-4-one] | 8.11 | 101 | 2.35
N[C@H]1CS(=O)(=O)c2ccc(-c3nnc(N4CCOC5CC54)o3)cc2N(Cc2ccc(Cl)cc2)C1=O (stereo partly drawn) [Example 408, (3R)-3-amino-5-[(4-chlorophenyl)methyl]-7-[5-(2-oxa-5-azabicyclo[4.1.0]heptan-5-yl)-1,3,4-oxadiazol-2-yl]-1,1-dioxo-2,3-dihydro-1λ^6,5-benzothiazepin-4-one] | > 10 | 88 | 4.89
N[C@H]1CS(=O)(=O)c2ccc(-c3nnc(N4CCOCC4)o3)cc2N(Cc2ccc(Cl)cc2)C1=O [Example 410, (3R)-3-amino-5-[(4-chlorophenyl)methyl]-7-(5-morpholino-1,3,4-oxadiazol-2-yl)-1,1-dioxo-2,3-dihydro-1λ^6,5-benzothiazepin-4-one] | 7.13 | 109 | 1.16
N[C@H]1CS(=O)(=O)c2ccc(-c3nnc(N4CCOC5(CC5)C4)o3)cc2N(Cc2ccc(Cl)cc2)C1=O [Example 411, (3R)-3-amino-5-[(4-chlorophenyl)methyl]-7-[5-(4-oxa-7-azaspiro[2.5]octan-7-yl)-1,3,4-oxadiazol-2-yl]-1,1-dioxo-2,3-dihydro-1λ^6,5-benzothiazepin-4-one] | > 10 | 78 | 0.454
N[C@H]1CS(=O)(=O)c2ccc(-c3nnc(C4(N)CCCC4)o3)cc2N(Cc2ccc(OC(F)(F)F)cc2)C1=O [Example 414, (3R)-3-amino-7-[5-(1-aminocyclopentyl)-1,3,4-oxadiazol-2-yl]-1,1-dioxo-5-[[4-(trifluoromethoxy)phenyl]methyl]-2,3-dihydro-1λ^6,5-benzothiazepin-4-one] | 4.39 | 83 | 2.59

Continued by falling EC50 (primary human T-cells [1]), values first:

EC50 (primary human T-cells [1]) [µM] | Structure (SMILES) | Emax (primary human T-cells [2]) [%] | EC50 (primary human T-cells [2]) [µM]
4.01 | CC(F)(F)CNc1nnc(-c2ccc3c(c2)N(Cc2ccc(Cl)cc2)C(=O)[C@@H](N)CS3(=O)=O)o1 [Example 393, (3R)-3-amino-5-[(4-chlorophenyl)methyl]-7-[5-(2,2-difluoropropylamino)-1,3,4-oxadiazol-2-yl]-1,1-dioxo-2,3-dihydro-1λ^6,5-benzothiazepin-4-one] | 51 | 2.82
3.68 | COCC1(Nc2nnc(-c3ccc4c(c3)N(Cc3ccc(Cl)cc3)C(=O)[C@@H](N)CS4(=O)=O)o2)CC(F)(F)C1 [Example 403, (3R)-3-amino-5-[(4-chlorophenyl)methyl]-7-[5-[[3,3-difluoro-1-(methoxymethyl)cyclobutyl]amino]-1,3,4-oxadiazol-2-yl]-1,1-dioxo-2,3-dihydro-1λ^6,5-benzothiazepin-4-one] | 83 | 1.15
3.58 | CC(C)Nc1nnc(-c2ccc3c(c2)N(Cc2ccc(Cl)cc2)C(=O)[C@@H](N)CS3(=O)=O)o1 [Example 399, (3R)-3-amino-5-[(4-chlorophenyl)methyl]-7-[5-(isopropylamino)-1,3,4-oxadiazol-2-yl]-1,1-dioxo-2,3-dihydro-1λ^6,5-benzothiazepin-4-one] | 73 | 3.46
3.09 | CN(c1nnc(-c2ccc3c(c2)N(Cc2ccc(Cl)cc2)C(=O)[C@@H](N)CS3(=O)=O)o1)C1CC1 [Example 394, (3R)-3-amino-5-[(4-chlorophenyl)methyl]-7-[5-[cyclopropyl(methyl)amino]-1,3,4-oxadiazol-2-yl]-1,1-dioxo-2,3-dihydro-1λ^6,5-benzothiazepin-4-one] | 98 | 1.77
1.64 | N[C@H]1CS(=O)(=O)c2ccc(-c3nnc(N4CC5(C4)CC(F)(F)C5)o3)cc2N(Cc2ccc(Cl)cc2)C1=O [Example 402, (3R)-3-amino-5-[(4-chlorophenyl)methyl]-7-[5-(6,6-difluoro-2-azaspiro[3.3]heptan-2-yl)-1,3,4-oxadiazol-2-yl]-1,1-dioxo-2,3-dihydro-1λ^6,5-benzothiazepin-4-one] | 93 | 0.928
1.32 | N[C@H]1CS(=O)(=O)c2ccc(-c3nnc(N4CC5(CCCOC5)C4)o3)cc2N(Cc2ccc(Cl)cc2)C1=O [Example 405, (3R)-3-amino-5-[(4-chlorophenyl)methyl]-7-[5-(6-oxa-2-azaspiro[3.5]nonan-2-yl)-1,3,4-oxadiazol-2-yl]-1,1-dioxo-2,3-dihydro-1λ^6,5-benzothiazepin-4-one] | 86 | 1.08
1.12 | CC1(C)CN(c2nnc(-c3ccc4c(c3)N(Cc3ccc(Cl)cc3)C(=O)[C@@H](N)CS4(=O)=O)o2)CCO1 [Example 395, (3R)-3-amino-5-[(4-chlorophenyl)methyl]-7-[5-(2,2-dimethylmorpholin-4-yl)-1,3,4-oxadiazol-2-yl]-1,1-dioxo-2,3-dihydro-1λ^6,5-benzothiazepin-4-one] | 88 | 0.517
0.937 | N[C@H]1CS(=O)(=O)c2ccc(-c3nnc(N4CCC(F)(F)CC4)o3)cc2N(Cc2ccc(Cl)cc2)C1=O [Example 396, (3R)-3-amino-5-[(4-chlorophenyl)methyl]-7-[5-(4,4-difluoro-1-piperidyl)-1,3,4-oxadiazol-2-yl]-1,1-dioxo-2,3-dihydro-1λ^6,5-benzothiazepin-4-one] | 87 | 0.526
0.879 | N[C@H]1CS(=O)(=O)c2ccc(-c3nnc(N4CC5(CCC5)C4)o3)cc2N(Cc2ccc(Cl)cc2)C1=O [Example 398, (3R)-3-amino-7-[5-(2-azaspiro[3.3]heptan-2-yl)-1,3,4-oxadiazol-2-yl]-5-[(4-chlorophenyl)methyl]-1,1-dioxo-2,3-dihydro-1λ^6,5-benzothiazepin-4-one] | 115 | 3.48
0.443 | N[C@H]1CS(=O)(=O)c2ccc(-c3nnc(C(F)(F)C(F)(F)F)o3)cc2N(Cc2ccc(OC(F)(F)F)cc2)C1=O [Example 415, (3R)-3-amino-1,1-dioxo-7-[5-(1,1,2,2,2-pentafluoroethyl)-1,3,4-oxadiazol-2-yl]-5-[[4-(trifluoromethoxy)phenyl]methyl]-2,3-dihydro-1λ^6,5-benzothiazepin-4-one] | 64 | 6.23
